Laboratory results: paper PMC3116320 (Indian Journal of Pharmaceutical Sciences, 2010)

Assays:
Assay in all cases: Sulforhodamine-B
Assay type in all cases: cell-based
[1] = test system: HT29 colon cancer cell line; settings: Homo sapiens, HT-29, read-out: IC50 anticancer evaluation HT29
[2] = test system: MIA-PA-CA-2 pancreatic cancer cell line; settings: Homo sapiens, MIA PaCa-2, read-out: IC50 anticancer evaluation Miapaca-2
[3] = test system: HOP62 lung cancer cell line; settings: Homo sapiens, HOP-62, read-out: IC50 anticancer evaluation Hop62
[4] = test system: Colo205 colon cancer cell line; settings: Homo sapiens, COLO 205, read-out: IC50 anticancer evaluation Colo205
[5] = test system: MCF7 breast cancer cell line; settings: Homo sapiens, MCF7, read-out: IC50 anticancer evaluation MCF

- IC50 [1]: < 15 µM
- IC50 [2]: < 15 µM
- IC50 [3]: < 15 µM
- IC50 [4]: < 15 µM
- IC50 [5]: < 15 µM
Compound: COc1cccc2c1C(=O)c1c(O)c3c(c(O)c1C2=O)C[C@@](O)(C(=O)CO)C[C@@H]3O[C@H]1C[C@H](N)[C@H](O)[C@H](C)O1 [Adriamycin]
